The values that follow come from ChEMBL document CHEMBL4028841, “The identification of novel acid isostere based inhibitors of the VPS10P family sorting receptor Sortilin” (Bioorg Med Chem Lett, 2017).

Each structure is given as a SMILES string. Activity calls are given as the source filed them. The rule behind the calls is not given here. Where only a bound is given, the exact number is not on record here.

One series deals with T1, Sortilin (Homo sapiens, UniProt Q99523).
T1 sequence (Q99523 whole entry): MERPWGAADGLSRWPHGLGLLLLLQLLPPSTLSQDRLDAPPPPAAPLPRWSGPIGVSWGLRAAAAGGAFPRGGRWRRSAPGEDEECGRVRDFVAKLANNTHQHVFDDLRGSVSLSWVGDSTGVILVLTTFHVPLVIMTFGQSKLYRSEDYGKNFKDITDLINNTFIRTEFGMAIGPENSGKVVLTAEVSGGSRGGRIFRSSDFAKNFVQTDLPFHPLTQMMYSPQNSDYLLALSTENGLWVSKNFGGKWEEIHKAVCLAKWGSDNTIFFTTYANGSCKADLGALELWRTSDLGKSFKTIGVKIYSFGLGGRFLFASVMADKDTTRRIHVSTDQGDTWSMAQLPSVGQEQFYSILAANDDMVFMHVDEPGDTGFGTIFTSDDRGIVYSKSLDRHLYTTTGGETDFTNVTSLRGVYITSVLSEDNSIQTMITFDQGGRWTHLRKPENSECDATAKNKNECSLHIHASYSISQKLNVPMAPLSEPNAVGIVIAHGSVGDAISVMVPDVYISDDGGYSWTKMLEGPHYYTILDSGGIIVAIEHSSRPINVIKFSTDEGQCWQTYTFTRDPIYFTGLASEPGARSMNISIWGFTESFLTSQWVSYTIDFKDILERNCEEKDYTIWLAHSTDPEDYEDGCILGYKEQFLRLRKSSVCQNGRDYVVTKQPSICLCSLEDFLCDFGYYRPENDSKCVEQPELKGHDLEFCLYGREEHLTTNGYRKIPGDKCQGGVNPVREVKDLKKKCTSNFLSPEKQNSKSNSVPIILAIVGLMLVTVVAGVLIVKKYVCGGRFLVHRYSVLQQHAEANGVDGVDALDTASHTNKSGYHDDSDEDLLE
Briefly: Displacement of [3H]-neurotensin from human His6-tagged sortilin pretreated for 30 mins followed by [3H]-neurotensin addition after 6 hrs measured for 360 secs by SPA.
Settings: not given
For orientation: In a radioligand displacement assay an active substance lowers the binding of a labelled ligand.
What is called IC50 is the midpoint of a concentration-inhibition curve. For `CC(=O)NC1C(=O)N=NN1CCC(C)C` (stereo not drawn), the IC50 is 31.6 µM.

In the case of `CNC(=O)C1C(=O)N=NN1CCC(C)C` (stereo not drawn), the IC50 was 39.8 µM.

For `CC(C)CCN1N=NC(=O)C1C(=O)Nc1cccnc1` (stereo not drawn), the IC50 was 3.98 µM.

Consider `CC(C)CCN1N=NC(=O)C1C(N)=O` (stereo not drawn), for which the IC50 was 50.1 µM.

Turning to `CC(C)CCc1noc(=O)[nH]1`, the IC50 is 126 µM.

Take `CC(C)CCC1=NOC(=O)C1`: the IC50 is 12.6 µM.

On to `O=C1CN(Cc2ccccc2)N=N1`, for which the IC50 was 126 µM.

`O=C1CC(c2ccccc2)=NO1`: the IC50 was 158 µM.

For `CC(C)CC1=NOC(=O)C1`, the IC50 was 31.6 µM.

Take `CC(C)CCN1N=NC(=O)C1C(=O)Nc1ccncc1` (stereo not drawn): the IC50 is 63.1 µM.

For `CC(C)CCc1n[nH]c(=O)o1`, the IC50 is 63.1 µM.

Take `CC(C)CCN1CC(=O)N=N1`: the 50% inhibitory concentration (IC50) is 63.1 µM.

Turning to `CC(C)CCN1N=NC(=O)C1NC(=O)c1cccnc1` (stereo not drawn), the IC50 was 12.6 µM.

Turning to `O=c1[nH]nc(-c2ccccc2)o1`, the IC50 is 126 µM.

As for `Cc1cccc(NC(=O)C2C(=O)N=NN2CCC(C)C)n1` (stereo not drawn), the IC50 is 12.6 µM.

Consider `O=C1CC(Cc2ccccc2)=NO1`, for which the IC50 was 79.4 µM.

For the molecule `CC(C)CCN1N=NC(=O)C1C` (stereo not drawn), the IC50 is 79.4 µM.

In the case of `Cc1cccc(C(=O)NC2C(=O)N=NN2CCC(C)C)n1` (stereo not drawn), the IC50 is 39.8 µM.

Regarding `CC(C)CCN1N=NC(=O)C1NC(=O)c1ccncc1` (stereo not drawn), the IC50 was 20 µM.

The next series has as its target Sortilin (Homo sapiens) (UniProt Q99523). Briefly: Displacement of [3H]-neurotensin from human His6-tagged sortilin at 500 uM pretreated for 30 mins followed by [3H]-neurotensin addition after 6 hrs measured for 360 secs by SPA relative to control.
Settings: not given
Turning to `O=C1CC(c2ccccc2Cl)=NO1`, the Imax stood at 37%.

As for `CC(C)CCN1N=NC(=O)C1C(C)C` (stereo not drawn), the Imax was less than 20%.

Consider `CC(C)CN1CC(=O)N=N1`, for which the Imax is 69%.

On to `O=c1[nH]c(-c2ccc(Cl)cc2)no1`, for which the Imax result was “inactive”.

Take `O=c1[nH]c(-c2cccc(Cl)c2)no1`: the Imax is 42%.

Regarding `O=C1CN(c2ccccc2)N=N1`, the Imax worked out at 50%.

For `O=c1[nH]nc(-c2ccc(Cl)cc2)o1`, the Imax result is “inactive”.

With `O=C1CC(c2cccc(Cl)c2)=NO1`, the Imax was 30%.

On to `O=C1CN(c2cccc(Cl)c2)N=N1`, for which the Imax entry was “inactive”.

As to `O=C1CN(c2ccccc2Cl)N=N1`, the Imax result is “inactive”.

For the molecule `O=c1[nH]nc(Cc2ccccc2)o1`, the Imax came to 54%.

Turning to `CCC1C(=O)N=NN1CCC(C)C` (stereo not drawn), the Imax worked out at 57%.

As for `Oc1nc(-c2ccccc2)no1`, the Imax worked out at 35%.

As to `CC(C)Cc1n[nH]c(=O)o1`, the Imax was 60%.

With `O=C1CC(c2ccc(Cl)cc2)=NO1`, the Imax entry was “inactive”.

On to `O=c1[nH]nc(-c2ccccc2Cl)o1`, for which the Imax is 63%.

On to `O=c1cc(-c2ccccc2)o[nH]1`, for which the Imax entry is “inactive”.

With `O=c1[nH]c(-c2ccccc2Cl)no1`, the Imax entry is “inactive”.

Take `O=C1CN(c2ccc(Cl)cc2)N=N1`: the Imax entry is “inactive”.

In the case of `O=c1[nH]c(Cc2ccccc2)no1`, the Imax amounted to 55%.

Regarding `O=c1[nH]nc(-c2cccc(Cl)c2)o1`, the Imax result was “inactive”.

The next series relates to MDR1. Nature of the series: Permeability in MDCK cells expressing human MDR1 at 0.5 uM after 150 mins by LC-MS/MS analysis. The series is classed as ADME, cell-based, Canis lupus familiaris. The settings on record: dog, read-out: permeability.
Consider `CC(=O)NC1C(=O)N=NN1CCC(C)C` (stereo not drawn), for which the Papp at 2.5 h, 0.5 µM is less than 0.1 ×10⁻⁶ cm/s.

On to `CNC(=O)C1C(=O)N=NN1CCC(C)C` (stereo not drawn), for which the Papp at 2.5 h, 0.5 µM was less than 0.1 ×10⁻⁶ cm/s.

In the case of `CC(C)CCN1N=NC(=O)C1C(=O)Nc1cccnc1` (stereo not drawn), the Papp at 2.5 h, 0.5 µM is 2.9 ×10⁻⁶ cm/s.

As to `CC(C)CCN1CC(=O)N=N1`, the Papp at 2.5 h, 0.5 µM turned out to be 2.9 ×10⁻⁶ cm/s.

In the case of `CC(C)CCN1N=NC(=O)C1NC(=O)c1cccnc1` (stereo not drawn), the Papp at 2.5 h, 0.5 µM is less than 0.1 ×10⁻⁶ cm/s.

As for `Cc1cccc(NC(=O)c2ccc(C(F)(F)F)cc2C(=O)O)n1`, the Papp at 2.5 h, 0.5 µM turned out to be 0.3 ×10⁻⁶ cm/s.

Test system in the next series: not listed separately
Nature of the series: Dissociation constant, pKa of the compound in 29 to 54% methanol. The format is physicochemical.
Settings: not given
As usually defined, the pKa is the negative logarithm of the acid dissociation constant. Higher therefore signals a weaker acid or stronger base. `CC(C)CCN1CC(=O)N=N1`: the pKa was 7.

In the case of `Cn1nnc(O)c1CC(N)C(=O)O` (stereo not drawn), the pKa came to 6.4.
